The values that follow come from PMC7827406, “Structure–Activity Relationship (SAR) Study of Spautin-1 to Entail the Discovery of Novel NEK4 Inhibitors” (International Journal of Molecular Sciences, 2021).

Like-named read-outs stand apart in the source and are kept apart here.

Holding throughout (experiment): biochemical
Set-up in all cases: Eurofins KinaseProfiler full panel at Km ATP, residual kinase activity (%) relative to DMSO

One test deals with T1, Abl(m) (Mus musculus, UniProt P00520).
T1 construct: gene Abl1
T1 sequence (P00520 whole entry): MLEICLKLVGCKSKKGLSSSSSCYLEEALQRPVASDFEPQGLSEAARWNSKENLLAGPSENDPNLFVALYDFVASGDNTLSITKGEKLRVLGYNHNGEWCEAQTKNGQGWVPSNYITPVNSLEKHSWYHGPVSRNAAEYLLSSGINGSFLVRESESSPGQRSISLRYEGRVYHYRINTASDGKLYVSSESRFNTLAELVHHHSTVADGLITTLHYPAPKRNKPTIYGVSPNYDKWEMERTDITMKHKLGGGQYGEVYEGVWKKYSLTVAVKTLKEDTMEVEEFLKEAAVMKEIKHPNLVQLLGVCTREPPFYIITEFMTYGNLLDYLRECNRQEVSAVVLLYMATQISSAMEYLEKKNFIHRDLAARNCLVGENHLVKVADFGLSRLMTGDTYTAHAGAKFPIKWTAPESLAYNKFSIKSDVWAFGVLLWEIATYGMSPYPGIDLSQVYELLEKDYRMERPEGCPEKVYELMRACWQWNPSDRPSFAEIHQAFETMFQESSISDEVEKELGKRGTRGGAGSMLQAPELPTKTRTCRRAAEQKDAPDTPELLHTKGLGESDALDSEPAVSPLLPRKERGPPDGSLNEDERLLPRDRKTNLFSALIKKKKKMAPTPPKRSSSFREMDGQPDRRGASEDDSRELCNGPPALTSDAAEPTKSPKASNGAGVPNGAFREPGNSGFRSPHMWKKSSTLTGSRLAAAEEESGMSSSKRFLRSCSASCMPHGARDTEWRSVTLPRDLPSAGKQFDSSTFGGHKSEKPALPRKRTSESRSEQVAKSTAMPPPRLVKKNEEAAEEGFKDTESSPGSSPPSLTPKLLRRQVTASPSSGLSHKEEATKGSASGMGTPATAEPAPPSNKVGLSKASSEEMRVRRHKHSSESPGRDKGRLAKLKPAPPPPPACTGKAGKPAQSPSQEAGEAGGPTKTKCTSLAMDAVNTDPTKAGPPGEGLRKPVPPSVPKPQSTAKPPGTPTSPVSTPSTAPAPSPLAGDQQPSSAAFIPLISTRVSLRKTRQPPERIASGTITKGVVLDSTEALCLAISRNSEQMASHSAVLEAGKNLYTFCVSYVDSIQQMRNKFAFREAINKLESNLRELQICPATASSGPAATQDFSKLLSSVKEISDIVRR
Put shortly: (§1)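 Two 10 µM single-concentration screens were run: a competition-binding screen, in which DNA-tagged kinase bound to immobilized ligands was quantified by qPCR, and a radiometric activity panel at Km ATP. Each is expressed as residual kinase activity (%).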

For another test, the target named is T2, BMPR2(h) (Homo sapiens, UniProt Q13873).
T2 sequence (Q13873 1-1038): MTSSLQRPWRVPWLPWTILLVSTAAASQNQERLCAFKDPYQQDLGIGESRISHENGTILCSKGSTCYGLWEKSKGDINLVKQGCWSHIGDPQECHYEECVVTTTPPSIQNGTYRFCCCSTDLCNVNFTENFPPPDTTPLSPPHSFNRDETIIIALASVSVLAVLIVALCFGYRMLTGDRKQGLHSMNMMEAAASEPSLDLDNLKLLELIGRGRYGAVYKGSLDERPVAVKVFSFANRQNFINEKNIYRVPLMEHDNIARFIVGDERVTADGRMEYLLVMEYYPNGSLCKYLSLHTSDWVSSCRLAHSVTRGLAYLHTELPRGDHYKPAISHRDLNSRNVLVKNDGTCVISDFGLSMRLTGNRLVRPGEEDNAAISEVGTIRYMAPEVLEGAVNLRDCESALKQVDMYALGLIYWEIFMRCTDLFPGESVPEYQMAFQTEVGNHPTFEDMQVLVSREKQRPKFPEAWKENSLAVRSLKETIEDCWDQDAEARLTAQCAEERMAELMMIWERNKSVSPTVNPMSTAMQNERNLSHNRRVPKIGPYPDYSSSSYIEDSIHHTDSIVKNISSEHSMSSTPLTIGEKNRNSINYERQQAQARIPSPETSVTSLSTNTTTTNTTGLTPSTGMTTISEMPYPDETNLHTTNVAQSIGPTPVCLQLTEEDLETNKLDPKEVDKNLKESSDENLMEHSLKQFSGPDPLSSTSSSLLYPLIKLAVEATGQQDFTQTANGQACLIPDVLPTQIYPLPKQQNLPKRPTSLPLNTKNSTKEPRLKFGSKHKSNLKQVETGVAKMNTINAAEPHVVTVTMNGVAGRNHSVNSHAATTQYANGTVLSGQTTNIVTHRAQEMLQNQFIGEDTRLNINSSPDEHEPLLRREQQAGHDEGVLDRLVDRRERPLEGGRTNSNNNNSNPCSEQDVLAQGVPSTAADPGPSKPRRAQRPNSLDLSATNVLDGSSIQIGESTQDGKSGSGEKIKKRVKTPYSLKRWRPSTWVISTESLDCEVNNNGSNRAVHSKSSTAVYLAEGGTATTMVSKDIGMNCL
The gist of the method:
as §1

Another test has as its target CDK2/cyclinA(h) (Homo sapiens, UniProt P24941). Put shortly: as §1
The target of another test is T3, NEK3(h) (Homo sapiens, UniProt P51956).
T3 sequence (P51956 1-506): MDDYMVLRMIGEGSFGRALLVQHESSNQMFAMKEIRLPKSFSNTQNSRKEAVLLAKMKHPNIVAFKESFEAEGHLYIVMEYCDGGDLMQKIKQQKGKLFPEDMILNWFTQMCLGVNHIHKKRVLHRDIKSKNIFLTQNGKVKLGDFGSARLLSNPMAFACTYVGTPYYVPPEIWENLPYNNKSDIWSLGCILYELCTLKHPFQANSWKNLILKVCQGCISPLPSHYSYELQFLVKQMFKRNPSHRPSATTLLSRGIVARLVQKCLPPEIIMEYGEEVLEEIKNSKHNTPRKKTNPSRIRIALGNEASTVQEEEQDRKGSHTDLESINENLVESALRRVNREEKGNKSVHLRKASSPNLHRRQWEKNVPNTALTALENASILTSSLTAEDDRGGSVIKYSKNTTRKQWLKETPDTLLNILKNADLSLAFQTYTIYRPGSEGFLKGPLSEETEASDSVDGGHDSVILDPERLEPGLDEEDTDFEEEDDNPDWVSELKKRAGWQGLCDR
Put shortly:
as §1

A further test concerns the target PAK2(h) (Homo sapiens, UniProt Q13177). Put shortly: as §1
For test [1], the target named is T4, PI3 Kinase (p110a/p65a)(h) (Homo sapiens, UniProt P42336).
T4 construct: gene PIK3CA; with p65a
T4 sequence (P42336 whole entry): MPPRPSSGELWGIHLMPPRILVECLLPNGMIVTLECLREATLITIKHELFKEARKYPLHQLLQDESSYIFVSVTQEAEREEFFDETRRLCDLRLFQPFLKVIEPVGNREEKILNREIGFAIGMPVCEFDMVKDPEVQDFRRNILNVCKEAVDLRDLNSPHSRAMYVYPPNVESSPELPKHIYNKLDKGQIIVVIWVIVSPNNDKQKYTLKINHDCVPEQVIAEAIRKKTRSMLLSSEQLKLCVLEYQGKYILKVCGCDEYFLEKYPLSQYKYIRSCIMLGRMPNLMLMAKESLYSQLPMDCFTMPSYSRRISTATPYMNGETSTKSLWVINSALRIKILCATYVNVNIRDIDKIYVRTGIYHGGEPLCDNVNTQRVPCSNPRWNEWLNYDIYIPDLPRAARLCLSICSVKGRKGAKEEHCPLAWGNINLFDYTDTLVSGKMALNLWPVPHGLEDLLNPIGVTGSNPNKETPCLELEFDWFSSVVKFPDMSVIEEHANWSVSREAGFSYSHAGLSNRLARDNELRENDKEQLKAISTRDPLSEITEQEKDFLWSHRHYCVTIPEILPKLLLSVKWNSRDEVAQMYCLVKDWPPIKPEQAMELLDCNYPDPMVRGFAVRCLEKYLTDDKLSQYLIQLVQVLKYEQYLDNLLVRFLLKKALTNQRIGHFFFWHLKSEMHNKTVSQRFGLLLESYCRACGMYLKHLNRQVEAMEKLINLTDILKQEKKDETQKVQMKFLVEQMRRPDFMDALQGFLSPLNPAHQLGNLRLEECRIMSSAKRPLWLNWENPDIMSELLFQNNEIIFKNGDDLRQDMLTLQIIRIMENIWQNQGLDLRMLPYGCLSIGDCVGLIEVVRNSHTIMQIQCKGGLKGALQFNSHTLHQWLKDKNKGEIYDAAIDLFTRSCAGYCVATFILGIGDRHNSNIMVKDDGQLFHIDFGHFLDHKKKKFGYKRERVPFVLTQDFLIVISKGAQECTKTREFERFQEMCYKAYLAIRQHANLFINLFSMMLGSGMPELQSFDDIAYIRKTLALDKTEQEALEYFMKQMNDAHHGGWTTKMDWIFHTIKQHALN
T4 sequence (P27986 whole entry partner): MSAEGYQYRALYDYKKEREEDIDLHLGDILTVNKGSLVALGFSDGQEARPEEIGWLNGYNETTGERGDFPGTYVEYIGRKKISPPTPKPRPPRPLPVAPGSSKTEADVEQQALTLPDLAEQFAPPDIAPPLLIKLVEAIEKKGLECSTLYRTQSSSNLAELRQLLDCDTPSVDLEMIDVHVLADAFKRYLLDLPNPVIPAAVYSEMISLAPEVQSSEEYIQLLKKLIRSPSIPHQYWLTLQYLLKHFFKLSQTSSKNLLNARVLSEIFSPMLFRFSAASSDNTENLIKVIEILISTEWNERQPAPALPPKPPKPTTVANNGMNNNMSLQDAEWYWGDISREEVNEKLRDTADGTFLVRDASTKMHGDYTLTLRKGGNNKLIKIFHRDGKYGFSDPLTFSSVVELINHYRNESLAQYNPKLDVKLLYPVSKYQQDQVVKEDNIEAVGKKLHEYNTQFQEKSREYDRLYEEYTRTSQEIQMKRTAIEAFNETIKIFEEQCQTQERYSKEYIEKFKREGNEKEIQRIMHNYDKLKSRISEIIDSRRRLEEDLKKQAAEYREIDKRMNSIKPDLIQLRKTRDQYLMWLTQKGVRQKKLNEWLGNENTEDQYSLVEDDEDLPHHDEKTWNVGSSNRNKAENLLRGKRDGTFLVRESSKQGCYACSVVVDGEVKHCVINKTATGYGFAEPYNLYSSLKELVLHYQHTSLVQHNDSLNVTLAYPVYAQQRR
Put shortly: as §1

Another test concerns the target T5, SAPK2a(h) (Homo sapiens, UniProt Q16539).
T5 construct: gene MAPK14
Put shortly: as §1

Setting [2] is: read-out: Residual activity (%) Spautin-1 5aa.
Setting [3] is: read-out: Residual activity (%) 5as.
[4] abbreviates: read-out: Residual activity (%) 5at.
Where [5] appears, read: read-out: Residual activity (%) 5ay.

T5 sequence (Q16539 whole entry): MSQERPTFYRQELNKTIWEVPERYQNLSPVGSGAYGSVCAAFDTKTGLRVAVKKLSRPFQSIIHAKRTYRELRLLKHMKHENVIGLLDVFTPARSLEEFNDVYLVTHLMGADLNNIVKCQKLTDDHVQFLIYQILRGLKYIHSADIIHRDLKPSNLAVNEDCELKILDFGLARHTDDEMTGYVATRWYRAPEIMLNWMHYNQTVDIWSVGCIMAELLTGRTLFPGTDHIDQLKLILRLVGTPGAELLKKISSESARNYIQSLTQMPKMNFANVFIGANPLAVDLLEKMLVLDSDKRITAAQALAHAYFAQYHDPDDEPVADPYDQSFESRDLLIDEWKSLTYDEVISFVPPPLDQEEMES
Sequence of PAK2(h) (Q13177 whole entry): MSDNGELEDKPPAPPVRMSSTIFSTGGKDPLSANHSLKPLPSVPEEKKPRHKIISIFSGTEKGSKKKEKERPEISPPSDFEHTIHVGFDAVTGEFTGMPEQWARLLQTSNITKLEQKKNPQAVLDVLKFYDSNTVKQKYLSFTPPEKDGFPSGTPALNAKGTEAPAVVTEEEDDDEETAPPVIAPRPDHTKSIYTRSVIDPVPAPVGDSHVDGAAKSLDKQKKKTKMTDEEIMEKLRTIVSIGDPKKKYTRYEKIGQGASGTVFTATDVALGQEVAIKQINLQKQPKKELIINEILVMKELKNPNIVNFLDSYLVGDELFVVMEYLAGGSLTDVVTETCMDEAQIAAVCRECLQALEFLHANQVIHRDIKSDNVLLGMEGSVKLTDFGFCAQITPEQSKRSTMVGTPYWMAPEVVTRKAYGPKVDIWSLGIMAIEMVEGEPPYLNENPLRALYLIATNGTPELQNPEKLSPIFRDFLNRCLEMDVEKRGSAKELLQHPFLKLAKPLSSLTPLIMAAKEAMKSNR

As to `Fc1ccc(CNc2ncnc3ccc(F)cc23)cc1` [5aa, 6-Fluoro-N-(4-fluorobenzyl)-4-Quinazolinamine], the remaining activity at 10 µM on Abl(m) (setting [2]) was determined as 90%; on BMPR2(h) (setting [2]), 115%; at CDK2/cyclinA(h) (setting [2]) it was 95%; at NEK3(h) (setting [2]), 71%; at PAK2(h) (setting [2]), 87%; in test [1] (setting [2]) it was 98%. On SAPK2a(h) (setting [2]), the remaining activity at 10 µM stood at 95%.

Take `Fc1ccc(CCNc2ncnc3ccc(F)cc23)cc1` [5as, 6-Fluoro-N-[2-(4-Fluorophenyl)Ethyl]-4-Quinazolinamine]: the remaining activity at 10 µM was found to be 83% at Abl(m) (setting [3]); 108% on BMPR2(h) (setting [3]); 82% on CDK2/cyclinA(h) (setting [3]); 80% at NEK3(h) (setting [3]); 94% on PAK2(h) (setting [3]); 95% in test [1] (setting [3]). For the same compound, on SAPK2a(h) (setting [3]), the remaining activity at 10 µM stood at 98%.

Turning to `Fc1ccc2ncnc(NCCc3ccc(Cl)cc3)c2c1` [5at, N-[2-(4-Chlorophenyl)Ethyl]-6-Fluoro-4-Quinazolinamine], the remaining activity at 10 µM on Abl(m) (setting [4]) stood at 99%; at BMPR2(h) (setting [4]) it was 103%; at CDK2/cyclinA(h) (setting [4]), 86%; at NEK3(h) (setting [4]), 99%; on PAK2(h) (setting [4]) it was 78%; in test [1] (setting [4]), 94%. For the same compound, on SAPK2a(h) (setting [4]), the remaining activity at 10 µM is 88%.

As for `COc1ccc2ncnc(Nc3cccc(F)c3)c2c1` [5ay, N-(3-Fluorophenyl)-6-Methoxy-4-Quinazolinamine], the remaining activity at 10 µM on Abl(m) (setting [5]) was found to be 56%; on BMPR2(h) (setting [5]), 99%; on CDK2/cyclinA(h) (setting [5]), 83%; on NEK3(h) (setting [5]), 87%; on PAK2(h) (setting [5]), 98%; in test [1] (setting [5]), 91%. In addition, the remaining activity at 10 µM at SAPK2a(h) (setting [5]) is 99%.
